Results: patent US9951065B2 (Gilead Sciences, Inc., priority 2015, dated 2018)

target: T1, IDO1 (Homo sapiens, UniProt P14902); assay: Cell-based (HeLa) assay for measurement of IDO1 inhibition (kynurenine levels in supernatant after IFNγ induction); details: HeLa cells, IFNγ-induced IDO1, kynurenine in supernatant after 48 hour incubation; geometric mean of a minimum of four determinations
T1 construct: HeLa cells were treated with a test compound in the presence of IFNγ, which induces IDO1 expression; host or cells: H1-HeLa cells, IDO1 induced with IFNγ
T1 sequence (P14902 whole entry): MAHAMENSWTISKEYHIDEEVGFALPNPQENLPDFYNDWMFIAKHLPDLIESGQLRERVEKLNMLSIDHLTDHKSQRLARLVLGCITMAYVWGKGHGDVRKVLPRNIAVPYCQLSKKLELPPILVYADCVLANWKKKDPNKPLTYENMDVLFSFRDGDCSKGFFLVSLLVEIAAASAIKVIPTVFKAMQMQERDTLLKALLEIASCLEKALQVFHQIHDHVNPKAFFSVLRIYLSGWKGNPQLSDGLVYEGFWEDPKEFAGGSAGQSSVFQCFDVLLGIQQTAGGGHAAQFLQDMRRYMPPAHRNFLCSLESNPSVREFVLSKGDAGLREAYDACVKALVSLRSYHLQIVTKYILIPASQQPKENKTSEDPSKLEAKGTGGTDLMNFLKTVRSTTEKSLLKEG
In short: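 IDO1 activity is read as kynurenine released into the medium, detected with Ehrlich's reagent (p-dimethylaminobenzaldehyde) at 480 nm after TCA treatment. HeLa cells were exposed 48 h to compounds in 0.5% DMSO alongside IFNγ induction. Values normalized to no-IFNγ and IFNγ controls; four-parameter EC50 given as geometric mean of ≥4 determinations.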

Row | EC50 [nM] | SMILES
1 | 434 | CNCc1nc2c(/C(=N/O)Nc3ccc(F)c(Cl)c3)cc(F)c(F)c2[nH]1 [Example 48, N-(3-Chloro-4-fluorophenyl)-4,5-difluoro-N′-hydroxy-2-((methylamino)methyl)-1H-benzo[d]imidazole-7-carboximidamide]
2 | 373 | O/N=C(\Nc1cccc(C(F)(F)F)c1)c1ccnc2nc[nH]c12 [Example 73, N′-Hydroxy-N-(3-(trifluoromethyl)phenyl)-1H-imidazo[4,5-b]pyridine-7-carboximidamide]
3 | 839 | CC(C)NCc1nc2c(F)c(F)cc(/C(=N/O)Nc3cccc(Cl)c3)c2[nH]1 [Example 27, N-(3-Chlorophenyl)-4,5-difluoro-N′-hydroxy-2-((isopropylamino)methyl)-1H-benzo[d]imidazole-7-carboximidamide]
4 | 593 | CN(C)CCc1nc2nccc(/C(=N/O)Nc3ccc(F)c(Cl)c3)c2[nH]1 [Example 184, N-(3-Chloro-4-fluorophenyl)-2-(2-(dimethylamino)ethyl)-N′-hydroxy-1H-imidazo[4,5-b]pyridine-7-carboximidamide]
5 | 1300 | O/N=C(\Nc1ccc(F)c(Cl)c1)c1ccnc2nc(CCN3CCC3)[nH]c12 [Example 259, 2-(2-(azetidin-1-yl)ethyl)-N-(3-chloro-4-fluorophenyl)-N′-hydroxy-1H-imidazo[4,5-b]-pyridine-7-carboximidamide]
6 | 4640 | O/N=C(\Nc1ccc(F)c(Cl)c1)c1ccnc2nc(CNCC(F)(F)F)[nH]c12 [Example 118, N-(3-Chloro-4-fluorophenyl)-N′-hydroxy-2-(((2,2,2-trifluoroethyl)amino)methyl)-1H-imidazo[4,5-b]pyridine-7-carboximidamide]
7 | 853 | O/N=C(\Nc1ccc(F)c(Br)c1)c1ccnc2nc(NCCN3CCOCC3)[nH]c12 [Example 238, N-(3-bromo-4-fluorophenyl)-N′-hydroxy-2-((2-morpholinoethyl)amino)-1H-imidazo[4,5-b]pyridine-7-carboximidamide]
8 | 5280 | O/N=C(\Nc1ccc(F)c(Cl)c1)c1ccnc2nc(NCCN3CC[C@H](O)C3)[nH]c12 [Example 279, (S)—N-(3-chloro-4-fluorophenyl)-N′-hydroxy-2-((2-(3-hydroxypyrrolidin-1-yl)ethyl)amino)-1H-imidazo[4,5-b]pyridine-7-carboximidamide]
9 | > 10000 | CC(=O)NCCc1nc2nccc(/C(=N/O)Nc3ccc(F)c(Cl)c3)c2[nH]1 [Example 270, N-(2-(7-(N-(3-chloro-4-fluorophenyl)-N′-hydroxycarbamimidoyl)-1H-imidazo[4,5-b]pyridin-2-yl)ethyl)acetamide]
10 | 460 | CNc1nc2nccc(/C(=N/O)Nc3ccc(F)c(Cl)c3)c2[nH]1 [Example 158, N-(3-Chloro-4-fluorophenyl)-N′-hydroxy-2-(methylamino)-1H-imidazo[4,5-b]pyridine-7-carboximidamide]
11 | 494 | Nc1nc2c(F)c(F)cc(/C(=N/O)Nc3ccc(F)c(Br)c3)c2[nH]1 [Example 14, 2-Amino-N-(3-bromo-4-fluorophenyl)-4,5-difluoro-N′-hydroxy-1H-benzo[d]imidazole-7-carboximidamide]
12 | 1080 | CCNc1nc2nccc(/C(=N/O)Nc3ccc(F)c(Cl)c3)c2[nH]1 [Example 163, N-(3-Chloro-4-fluorophenyl)-2-(ethylamino)-N′-hydroxy-1H-imidazo[4,5-b]pyridine-7-carboximidamide]
13 | 4020 | O/N=C(\Nc1ccc(F)c(Cl)c1)c1ccnc2nc(NC3CC(F)(F)C3)[nH]c12 [Example 162, N-(3-Chloro-4-fluorophenyl)-2-((3,3-difluorocyclobutyl)amino)-N′-hydroxy-1H-imidazo[4,5-b]pyridine-7-carboximidamide]
14 | 463 | Cc1c[nH]c(-c2nc3nccc(/C(=N/O)Nc4ccc(F)c(Cl)c4)c3[nH]2)n1 [Example 151, N-(3-Chloro-4-fluorophenyl)-N′-hydroxy-2-(4-methyl-1H-imidazol-2-yl)-1H-imidazo[4,5-b]pyridine-7-carboximidamide]
15 | 2180 | O/N=C(\Nc1ccc(F)c(Cl)c1)c1ccnc2nc(NCCC3CCCCC3)[nH]c12 [Example 223, N-(3-chloro-4-fluorophenyl)-2-((2-cyclohexylethyl)amino)-N′-hydroxy-1H-imidazo[4,5-b]pyridine-7-carboximidamide]
16 | 1920 | COCCCNCc1nc2c(F)c(F)cc(/C(=N/O)Nc3cccc(Cl)c3)c2[nH]1 [Example 24, N-(3-Chlorophenyl)-4,5-difluoro-N′-hydroxy-2-(((3-methoxypropyl)amino)methyl)-1H-benzo[d]imidazole-7-carboximidamide]
17 | 2810 | O/N=C(\Nc1ccc(F)c(Cl)c1)c1ccnc2nc(CNCc3ncccn3)[nH]c12 [Example 130, N-(3-Chloro-4-fluorophenyl)-N′-hydroxy-2-(((pyrimidin-2-ylmethyl)amino)methyl)-1H-imidazo[4,5-b]pyridine-7-carboximidamide]

same assay, conditions: HeLa cells, IFNγ-induced IDO1, kynurenine in supernatant, 48 hour incubation; geometric mean of a minimum of four determinations

Row | SMILES | EC50 [nM]
18 | ON=C(Nc1ccc(F)c(Cl)c1)c1cc(F)c(F)c2nc(NCc3ncc[nH]3)[nH]c12 [Example 345, 2-(((1H-imidazol-2-yl)methyl)amino)-N-(3-chloro-4-fluorophenyl)-4,5-difluoro-N′-hydroxy-1H-benzo[d]imidazole-7-carboximidamide] | 3840
19 | O=S(=O)(NCCNc1nc2c(F)c(F)cc(/C(=N/O)Nc3ccc(F)c(Cl)c3)c2[nH]1)C1CC1 [Example 336, N-(3-chloro-4-fluorophenyl)-2-((2-(cyclopropanesulfonamido)ethyl)amino)-4,5-difluoro-N′-hydroxy-1H-benzo[d]imidazole-7-carboximidamide] | > 10000

The next lines start with the values.

Row | EC50 [nM] | SMILES
20 | 2450 | CC1(C)CNC1CNc1nc2c(F)c(F)cc(/C(=N/O)Nc3ccc(F)c(Cl)c3)c2[nH]1 (stereo not shown) [Example 472, N-(3-chloro-4-fluorophenyl)-2-(((3,3-dimethylazetidin-2-yl)methyl)amino)-4,5-difluoro-N′-hydroxy-1H-benzo[d]imidazole-7-carboximidamide]
21 | 581 | CN(CCc1nc2nccc(/C(=N/O)Nc3ccc(F)c(Cl)c3)c2[nH]1)CCC1CCOCC1 [Example 401, N-(3-chloro-4-fluorophenyl)-N′-hydroxy-2-(2-(methyl(2-(tetrahydro-2H-pyran-4-yl)ethyl)amino)ethyl)-1H-imidazo[4,5-b]pyridine-7-carboximidamide]
22 | 1790 | CN(CCc1nc2nccc(/C(=N/O)Nc3ccc(F)c(Cl)c3)c2[nH]1)C1CCCCC1 [Example 393, N-(3-chloro-4-fluorophenyl)-2-(2-(cyclohexyl(methyl)amino)ethyl)-N′-hydroxy-1H-imidazo[4,5-b]pyridine-7-carboximidamide]
23 | 651 | COCCN1CCCC(Nc2nc3c(F)c(F)cc(/C(=N/O)Nc4ccc(F)c(Cl)c4)c3[nH]2)C1 (stereo not shown) [Example 453, N-(3-chloro-4-fluorophenyl)-4,5-difluoro-N′-hydroxy-2-((1-(2-methoxyethyl)piperidin-3-yl)amino)-1H-benzo[d]imidazole-7-carboximidamide]
24 | 192 | CCN(CCNc1nc2nccc(/C(=N/O)Nc3ccc(F)c(Cl)c3)c2[nH]1)C1CC1 [Example 403, N-(3-chloro-4-fluorophenyl)-2-((2-(cyclopropyl(ethyl)amino)ethyl)amino)-N′-hydroxy-1H-imidazo[4,5-b]pyridine-7-carboximidamide]
25 | 290 | CN(C)CCNc1nc2c(F)ccc(/C(=N/O)Nc3cccc(Cl)c3)c2[nH]1 [Example 384, N-(3-chlorophenyl)-2-((2-(dimethylamino)ethyl)amino)-4-fluoro-N′-hydroxy-1H-benzo[d]imidazole-7-carboximidamide]
26 | 261 | CO[C@@H]1CN(C)C[C@H]1Nc1nc2c(F)c(F)cc(/C(=N/O)Nc3ccc(F)c(Cl)c3)c2[nH]1 [Example 458, N-(3-chloro-4-fluorophenyl)-4,5-difluoro-N′-hydroxy-2-(((3R,4R)-4-methoxy-1-methylpyrrolidin-3-yl)amino)-1H-benzo[d]imidazole-7-carboximidamide]
27 | 3260 | CN1CCOC(CNc2nc3c(F)c(F)cc(/C(=N/O)Nc4ccc(F)c(Cl)c4)c3[nH]2)C1 (stereo not shown) [Example 356, N-(3-chloro-4-fluorophenyl)-4,5-difluoro-N′-hydroxy-2-(((4-methylmorpholin-2-yl)methyl)amino)-1H-benzo[d]imidazole-7-carboximidamide]
28 | 1300 | CC(CCNc1nc2c(F)c(F)cc(/C(=N/O)Nc3ccc(F)c(Cl)c3)c2[nH]1)N(C)C (stereo not shown) [Example 353, N-(3-chloro-4-fluorophenyl)-2-((3-(dimethylamino)butyl)amino)-4,5-difluoro-N′-hydroxy-1H-benzo[d]imidazole-7-carboximidamide]
29 | 6250 | CN1CCN(CCNc2nc3c(F)c(F)cc(/C(=N/O)Nc4ccc(F)c(Cl)c4)c3[nH]2)CC1=O [Example 449, N-(3-chloro-4-fluorophenyl)-4,5-difluoro-N′-hydroxy-2-((2-(4-methyl-3-oxopiperazin-1-yl)ethyl)amino)-1H-benzo[d]imidazole-7-carboximidamide]
30 | 7030 | O/N=C(\Nc1ccc(F)c(Cl)c1)c1cc(F)c(F)c2nc(NCc3ncccn3)[nH]c12 [Example 350, N-(3-chloro-4-fluorophenyl)-4,5-difluoro-N′-hydroxy-2-((pyrimidin-2-ylmethyl)amino)-1H-benzo[d]imidazole-7-carboximidamide]
31 | 1210 | CN1CCCC1CCNc1nc2c(F)c(F)cc(/C(=N/O)Nc3ccc(F)c(Cl)c3)c2[nH]1 (stereo not shown) [Example 354, N-(3-chloro-4-fluorophenyl)-4,5-difluoro-N′-hydroxy-2-((2-(1-methylpyrrolidin-2-yl)ethyl)amino)-1H-benzo[d]imidazole-7-carboximidamide]
